# Assay results from patent publication US20050256003A1, “Novel herbicides” (priority 2002, published 2005).
# Test system: monocotyledonous and dicotyledonous test plants
# Test: Post-emergence herbicidal action
# Type: in vivo
# Conditions: about 18 days, rating 0-10
# Experimental: Post-Emergence Herbicidal Action
# In a greenhouse, monocotyledonous and dicotyledonous test plants are grown in standard soil in plastic pots and at the 4- to 6-leaf stage are sprayed with an aqueous suspension of the test compounds of formula I prepared from a 25% wettable powder (Example F3, b) according to WO 97/34485) or with an emulsion of the test compounds of formula I prepared from a 25% emulsifiable concentrate (Example F1, c) according to WO 97/34485), in a concentration corresponding to 125 g or 250 g of active ingredient/ha (500 litres of water/ha). The test plants are then grown on in a greenhouse under optimum conditions. After a test duration of about 18 days, the test is evaluated in accordance with a scale of nine ratings (10=total damage, 0=no action). Ratings of from 10 to 7 (especially from 10 to 8) indicate good to very good herbicidal action.
Structure (SMILES),"Post-emergence action, Amaranthus (250 g a.i./ha)","Post-emergence action, Chenopodium (250 g a.i./ha)","Post-emergence action, Echinochloa (250 g a.i./ha)","Post-emergence action, Euphorbia (250 g a.i./ha)","Post-emergence action, Ipomea (250 g a.i./ha)","Post-emergence action, Sinapis (250 g a.i./ha)","Post-emergence action, Stellaria (250 g a.i./ha)","Post-emergence action, Xanthium (250 g a.i./ha)","Post-emergence action, Amaranthus (125 g a.i./ha)","Post-emergence action, Chenopodium (125 g a.i./ha)","Post-emergence action, Echinochloa (125 g a.i./ha)","Post-emergence action, Euphorbia (125 g a.i./ha)","Post-emergence action, Ipomea (125 g a.i./ha)","Post-emergence action, Sinapis (125 g a.i./ha)","Post-emergence action, Stellaria (125 g a.i./ha)","Post-emergence action, Xanthium (125 g a.i./ha)"
Cc1nn(Cc2nc(C(F)(F)F)ccc2C(=O)C2=C(O)C(C)(C)CC(C)(C)C2=O)c(=O)s1 [Compound A7.009],4,9,7,7,7,8,7,7,,,,,,,,
CCOc1nn(Cc2nc(C(F)(F)F)ccc2C(=O)c2cnn(C)c2O)c(=O)n1C [Compound B1.005],9,9,4,9,8,9,8,6,,,,,,,,
"Cn1c(C(F)(F)F)nn(Cc2nc(C(F)(F)Cl)ccc2C(=O)C2=C(O)CCCC2=O)c1=O [Compound A1.001, 2-[6-(Chloro-difluoro-methyl)-3-(2-hydroxy-6-oxo-cyclohex-1-ene-carbonyl)-pyridin-2-ylmethyl]-4-methyl-5-trifluoromethyl-2.4-dihydro-[1.2.4]triazol-3-one]",,,,,,,,,8,9,4,4,8,8,8,8
CSC(=O)n1c(C)cc(=O)n1Cc1nc(C(F)(F)F)ccc1C(=O)c1cnn(C)c1O [Compound B1.062],9,9,4,9,7,8,8,6,,,,,,,,
CCOc1nn(Cc2nc(C(F)(F)F)ccc2C(=O)c2cnn(C)c2O)c(=O)n1CC [Compound B1.050],9,9,4,9,7,9,7,8,,,,,,,,
CCOc1nn(Cc2nc(C(F)(F)F)ccc2C(=O)C2=C(O)CCCC2=O)c(=O)n1C1CC1 [Compound A1.049],9,8,8,9,9,8,8,9,,,,,,,,
Cc1nn(Cc2nc(C(F)(F)F)ccc2C(=O)C2=C(O)C(C)(C)CC(C)(C)C2=O)c(=O)o1 [Compound A7.008],5,9,7,7,7,9,9,8,,,,,,,,
